Laboratory results from US9573913B2, “Cathepsin cysteine protease inhibitors” (Merck Sharp & Dohme Corp., priority 2013, dated 2017).

Assays:
human cathepsin K = human cathepsin K (UniProt P43236); test: Cathepsin K Assay (hrbCat K); type: biochemical; conditions: Z-Leu-Arg-AMC substrate, pH 5.5, 15 min preincubation; read-out: hrbCat K (IP (nM))
Summary of the method: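 Human cathepsin K (0.4 nM) was preincubated 15 min at room temperature with compound in 50 mM MES pH 5.5, 2.5 mM EDTA, 2.5 mM DTT and 10% DMSO. Inhibition was fitted to a dose-response model.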

human cathepsin F = target: T1, human cathepsin F (Homo sapiens, UniProt Q9UBX1); test: Cathepsin F assay (hCat F); type: biochemical; conditions: Z-Phe-Arg-AMC substrate, pH 5.5, 15 min preincubation; read-out: hCat F (IP (nM))
T1 sequence (Q9UBX1 271-484): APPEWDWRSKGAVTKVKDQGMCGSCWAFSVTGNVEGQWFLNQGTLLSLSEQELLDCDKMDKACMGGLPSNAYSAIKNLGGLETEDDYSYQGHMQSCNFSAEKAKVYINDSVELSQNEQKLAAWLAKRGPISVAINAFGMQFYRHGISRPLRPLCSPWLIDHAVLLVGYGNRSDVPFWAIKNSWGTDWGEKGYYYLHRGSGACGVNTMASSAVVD
Summary of the method: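 AMC release from Z-Phe-Arg-AMC, added at 8 μM, was monitored fluorometrically (360/460 nm) for 20 min after 10 nM enzyme and compound had been preincubated 15 min at room temperature. Buffer: MES 50 mM pH 5.5, EDTA and DTT 2.5 mM each, 10% DMSO. Compound DMSO dilutions spanned 500–0.025 μM (3-fold). Dose-response fitting gave % inhibition.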

IC50 (human cathepsin K)	IC50 (human cathepsin F)	Compound
0.7 nM	356 nM	CC(C)(C)c1nc([C@@H]2CCC(F)(F)C[C@H]2C(=O)NC2(C#N)CC2)c(-c2ccc(N3CCS(=O)(=O)CC3)cc2)o1 [Example 166, (1R,2R)-2-(2-(tert-butyl)-5-(4-(1,1-dioxidothiomorpho-lino)phenyl)oxazol-4-yl)-N-(1-cyanocyclopropyl)-5,5-difluorocyclohexane-carboxamide]
2.4 nM	5120 nM	CC(C)(C)c1nc([C@@H]2CCCC[C@H]2C(=O)NC2(C#N)CC2)c(-c2ccc(N3CCS(=O)(=O)CC3)cc2)o1 [Example 167, (1R,2R)-2-(2-(tert-butyl)-5-(4-(1,1-dioxidothiomorpho-lino)phenyl)oxazol-4-yl)-N-(1-cyanocyclopropyl) cyclohexanecarbox-amide]
3.3 nM	≥ 10000 nM	CC(C)(C)c1nc([C@@H]2CC[C@H](F)C[C@H]2C(=O)NC2(C#N)CC2)c(-c2ccc(N3CCS(=O)(=O)CC3)cc2)o1 [Example 168, (1R,2R,5S)-2-(2-(tert-butyl)-5-(4-(1,1-dioxidothiomorpho-lino)phenyl)oxazol-4-yl)-N-(1-cyanocyclopropyl)-5-fluorocyclohexane-carboxamide]
2.7 nM	5660 nM	C[C@@H](C#N)NC(=O)[C@@H]1C[C@@H](F)CC[C@H]1c1nc(C(C)(C)C)oc1-c1ccc(N2CCS(=O)(=O)CC2)cc1 [Example 169, (1R,2R,5S)-2-(2-(tert-butyl)-5-(4-(1,1-dioxidothiomorpho-lino)phenyl)oxazol-4-yl)-N-((S)-1-cyanoethyl)-5-fluorocyclohexane-carboxamide]
12 nM	≥ 10000 nM	CC(C)[C@@H](C#N)NC(=O)[C@@H]1C[C@@H](F)CC[C@H]1c1nc(C(C)(C)C)oc1-c1ccc(N2CCS(=O)(=O)CC2)cc1 [Example 170, (1R,2R,5S)-2-(2-(tert-butyl)-5-(4-(1,1-dioxidothiomorpho-lino)phenyl)oxazol-4-yl)-N-((S)-1-cyano-2-methylpropyl)-5-fluorocyclohexane-carboxamide]
4.8 nM	7420 nM	C[C@@H](C#N)NC(=O)[C@@H]1C[C@@H](F)CC[C@H]1c1nc(C(C)(C)C)oc1-c1ccc(N2CCS(=N)(=O)CC2)cc1 [Example 171, (1R,2R,5S)-2-(2-(tert-butyl)-5-(4-(1-imino-1-oxidothiomorpholino)phenyl)oxazol-4-yl)-N-((S)-1-cyanoethyl)-5-fluorocyclohexane-carboxamide]
34.4 nM	≥ 10000 nM	CC(C)[C@@H](C#N)NC(=O)[C@@H]1C[C@@H](F)CC[C@H]1c1nc(C(C)(C)C)oc1-c1ccc(N2CCS(=N)(=O)CC2)cc1 [Example 172, (1R,2R,5S)-2-(2-(tert-butyl)-5-(4-(1-imino-1-oxidothiomorpholino)phenyl)oxazol-4-yl)-N-((S)-1-cyano-2-methylpropyl)-5-fluorocyclohexane-carboxamide]
4.7 nM	6900 nM	CN=S1(=O)CCN(c2ccc(-c3oc(C(C)(C)C)nc3[C@@H]3CC[C@H](F)C[C@H]3C(=O)N[C@@H](C)C#N)cc2)CC1 [Example 173, (1R,2R,5S)-2-(2-(tert-butyl)-5-(4-(1-(methylimino)-1-oxidothiomorpholino)phenyl)oxazol-4-yl)-N-((S)-1-cyanoethyl)-5-fluorocyclohexane-carboxamide]
31.3 nM	≥ 10000 nM	CN=S1(=O)CCN(c2ccc(-c3oc(C(C)(C)C)nc3[C@@H]3CC[C@H](F)C[C@H]3C(=O)N[C@H](C#N)C(C)C)cc2)CC1 [Example 174, (1R,2R,5S)-2-(2-(tert-butyl)-5-(4-(1-(methylimino)-1-oxidothiomorpholino)phenyl)oxazol-4-yl)-N-((S)-1-cyano-2-methylpropyl)-5-fluorocyclohexane-carboxamide]

The remaining lines, values behind:

Compound	IC50 (human cathepsin K)	IC50 (human cathepsin F)
N#CC1(NC(=O)[C@@H]2CCCC[C@H]2c2nc([C@@H]3CCCCO3)sc2-c2ccc(N3CCS(=O)(=O)CC3)cc2)CC1 [Example 149, (1R,2R)-N-(1-cyanocyclopropyl)-2-(5-(4-(1,1-dioxidothiomorpho-lino)phenyl)-2-((S)-tetrahydro-2H-pyran-2-yl)thiazol-4-yl)cyclohexane-carboxamide]	3.6 nM	7560 nM
N#CC1(NC(=O)[C@@H]2CCCC[C@H]2c2nc(-c3ccc(F)cc3)sc2-c2ccc(C3CN(C(=O)NCC(F)(F)F)C3)cc2)CC1 [Example 150, 3-(4-(4-((1R,2R)-2-((1-cyanocyclopropyl)carbamoyl)cyclohex-yl)-2-(4-fluorophenyl)thiazol-5-yl)phenyl)-N-(2,2,2-trifluoroethyl) azetidine-1-carboxamide]	1.6 nM	110 nM
CC(=O)N1CC(c2ccc(-c3sc(-c4ccc(F)cc4)nc3[C@@H]3CCCC[C@H]3C(=O)NC3(C#N)CC3)cc2)C1 [Example 151, (1R,2R)-2-(5-(4-(1-acetylazetidin-3-yl)phenyl)-2-(4-fluorophenyl)thiazol-4-yl)-N-(1-cyanocyclopropyl) cyclohexanecarbox-amide]	1.3 nM	177 nM
CN(CC(F)(F)F)c1nc([C@@H]2CCCC[C@H]2C(=O)NC2(C#N)CC2)c(-c2ccc(N3CCS(=O)(=O)CC3)cc2)s1 [Example 152, (1R,2R)-N-(1-cyanocyclopropyl)-2-(5-(4-(1,1-dioxidothiomorpho-lino)phenyl)-2-(methyl(2,2,2-trifluoroethyl)amino)thiazol-4-yl)cyclohexane-carboxamide]	7 nM	≥ 10000 nM
N#CC1(NC(=O)[C@@H]2CCCC[C@H]2c2nc(N3CCC(F)(F)C3)sc2-c2ccc(N3CCS(=O)(=O)CC3)cc2)CC1 [Example 153, (1R,2R)-N-(1-cyanocyclopropyl)-2-(2-(3,3-difluoropyrrolidin-1-yl)-5-(4-(1,1-dioxidothiomorpho-lino)phenyl)thiazol-4-yl)cyclohexane-carboxamide]	3.1 nM	1000 nM
N#CC1(NC(=O)[C@@H]2CCCC[C@H]2c2nc([C@@H]3CCOC3)sc2-c2ccc(N3CCS(=O)(=O)CC3)cc2)CC1 [Example 155, (1R,2R)-N-(1-cyanocyclopropyl)-2-(5-(4-(1,1-dioxidothiomorpho-lino)phenyl)-2-((R)-tetrahydrofuran-3-yl)thiazol-4-yl)cyclohexane-carboxamide]	4 nM	1000 nM
N#CC1(NC(=O)[C@@H]2CCCC[C@H]2c2nc(NCC(F)(F)F)sc2-c2ccc(N3CCS(=O)(=O)CC3)cc2)CC1 [Example 156, (1R,2R)-N-(1-cyanocyclopropyl)-2-(5-(4-(1,1-dioxidothiomorpho-lino)phenyl)-2-((2,2,2-trifluoroethyl)amino)thiazol-4-yl)cyclohexane-carboxamide]	8.8 nM	≥ 10000 nM
CC(C)(C)Nc1nc([C@@H]2CCCC[C@H]2C(=O)NC2(C#N)CC2)c(-c2ccc(N3CCS(=O)(=O)CC3)cc2)s1 [Example 157, (1R,2R)-2-(2-(tert-butylamino)-5-(4-(1,1-dioxidothiomorpho-lino)phenyl)thiazol-4-yl)-N-(1-cyanocyclopropyl) cyclohexanecarbox-amide]	19.4 nM	≥ 10000 nM
N#CC1(NC(=O)[C@@H]2CCCC[C@H]2c2nc(C3CCS(=O)(=O)CC3)sc2-c2ccc(N3CCS(=O)(=O)CC3)cc2)CC1 [Example 158, (1R,2R)-N-(1-cyanocyclopropyl)-2-(2-(1,1-dioxidotetrahydro-2H-thiopyran-4-yl)-5-(4-(1,1-dioxidothiomorpho-lino)phenyl)thiazol-4-yl)cyclohexane-carboxamide]	4.6 nM	≥ 10000 nM
CN=S1(=O)CCN(c2ccc(-c3sc(-c4ccc(F)cc4)nc3[C@@H]3CCCC[C@H]3C(=O)NC3(C#N)CC3)cc2)CC1 [Example 160, (1R,2R)-N-(1-cyanocyclopropyl)-2-(2-(4-fluorophenyl)-5-(4-(1-(methylimino)-1-oxidothiomorpholino)phenyl)thiazol-4-yl)cyclohexane-carboxamide]	1.6 nM	3330 nM
CC(C)(c1ccccc1)c1nc([C@@H]2CCCC[C@H]2C(=O)NC2(C#N)CC2)c(-c2ccc(N3CCS(=O)(=O)CC3)cc2)s1 [Example 161, (1R,2R)-N-(1-cyanocyclopropyl)-2-(5-(4-(1,1-dioxidothiomorpho-lino)phenyl)-2-(2-phenylpropan-2-yl)thiazol-4-yl)cyclohexane-carboxamide]	5.1 nM	1000 nM
Cc1nc([C@@H]2CCCC[C@H]2C(=O)NCC#N)c(-c2ccc(N3CCS(=O)(=O)CC3)cc2)o1 [Example 164, (1R,2R)-N-(cyanomethyl)-2-(5-(4-(1,1-dioxidothiomorpho-lino)phenyl)-2-methyloxazol-4-yl)cyclohexane-carboxamide]	13.8 nM	≥ 10000 nM
N#CC1(NC(=O)[C@@H]2CC(F)(F)CC[C@H]2c2nc(-c3ccc(F)cc3)oc2-c2ccc(N3CCS(=O)(=O)CC3)cc2)CC1 [Example 165, (1R,2R)-N-(1-cyanocyclopropyl)-2-(5-(4-(1,1-dioxidothiomorpho-lino)phenyl)-2-(4-fluorophenyl)oxazol-4-yl)-5,5-difluorocyclohexane-carboxamide]	0.6 nM	61 nM
